According to patent US8686143B2, “Compounds useful as inhibitors of Janus kinases” (Vertex Pharmaceuticals Incorporated, priority 2007, dated 2014):

Molecular target: T1, JAK3 (Homo sapiens, UniProt P52333)
T1 sequence (P52333 1-1124): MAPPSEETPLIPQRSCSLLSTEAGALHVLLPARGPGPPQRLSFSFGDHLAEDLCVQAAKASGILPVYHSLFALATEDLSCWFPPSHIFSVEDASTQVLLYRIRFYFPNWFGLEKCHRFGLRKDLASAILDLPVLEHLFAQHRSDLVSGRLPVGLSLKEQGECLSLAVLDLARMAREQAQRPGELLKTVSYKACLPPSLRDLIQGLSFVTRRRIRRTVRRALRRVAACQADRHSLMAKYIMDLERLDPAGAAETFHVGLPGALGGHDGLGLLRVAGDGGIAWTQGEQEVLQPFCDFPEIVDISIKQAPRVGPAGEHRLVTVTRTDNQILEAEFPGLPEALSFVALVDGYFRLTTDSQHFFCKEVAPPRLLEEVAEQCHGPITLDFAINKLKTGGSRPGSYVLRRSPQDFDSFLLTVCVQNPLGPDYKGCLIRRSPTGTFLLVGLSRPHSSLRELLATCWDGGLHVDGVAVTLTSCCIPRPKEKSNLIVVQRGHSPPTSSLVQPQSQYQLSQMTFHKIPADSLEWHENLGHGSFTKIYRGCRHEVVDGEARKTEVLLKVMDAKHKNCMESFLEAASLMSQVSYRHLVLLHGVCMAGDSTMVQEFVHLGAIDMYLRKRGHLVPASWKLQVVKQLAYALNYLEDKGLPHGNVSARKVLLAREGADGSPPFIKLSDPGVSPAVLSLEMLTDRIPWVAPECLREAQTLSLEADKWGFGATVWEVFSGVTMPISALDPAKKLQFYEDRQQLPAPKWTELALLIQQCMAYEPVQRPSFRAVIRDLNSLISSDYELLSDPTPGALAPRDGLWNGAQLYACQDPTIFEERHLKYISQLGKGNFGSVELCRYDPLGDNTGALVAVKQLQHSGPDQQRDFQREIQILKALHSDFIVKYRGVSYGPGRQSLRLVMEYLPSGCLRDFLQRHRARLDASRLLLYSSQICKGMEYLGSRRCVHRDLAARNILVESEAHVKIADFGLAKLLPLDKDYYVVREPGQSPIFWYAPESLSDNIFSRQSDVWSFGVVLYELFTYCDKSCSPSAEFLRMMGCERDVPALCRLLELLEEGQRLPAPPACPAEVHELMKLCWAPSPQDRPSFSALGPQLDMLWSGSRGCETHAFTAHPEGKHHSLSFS
Test: JAK3 Inhibition Assay (33P incorporation into poly(Glu)4Tyr)
Format: biochemical
Details: for Ki: 1 nM JAK3, 5 μM ATP, 1 μM poly(Glu)4Tyr, 25° C.
Experimental: Compounds were screened for their ability to inhibit JAK3 using the assay shown below. Reactions were carried out in a kinase buffer containing 100 mM HEPES (pH 7.4), 1 mM DTT, 10 mM MgCl2, 25 mM NaCl, and 0.01% BSA. Substrate concentrations in the assay were 5 μM ATP (200 uCi/μmole ATP) and 1 μM poly(Glu)4Tyr. Reactions were carried out at 25° C. and 1 nM JAK3.
To each well of a 96 well polycarbonate plate was added 1.5 μl of a candidate JAK3 inhibitor along with 50 μlof kinase buffer containing 2 μM poly(Glu)4Tyr and 10 μM ATP. This was then mixed and 50 μl of kinase buffer containing 2 nM JAK3 enzyme was added to start the reaction. After 20 minutes at room temperature (25° C.), the reaction was stopped with 50 μl of 20% trichloroacetic acid (TCA) that also contained 0.4 mM ATP. The entire contents of each well were then transferred to a 96 well glass fiber filter plate using a TomTek Cell Harvester. After washing, 60 μl of scintillation fluid was added and ^33P incorporation detected on a Perkin Elmer TopCount.

SMILES | Ki | further results
CC(C)(Nc1ccnc(-c2ccc(=O)[nH]c2)n1)C(=O)NCC(F)(F)F [Compound 86] | 1 to 10 µM | –
COc1ccc(-c2ncc(F)c(NC(C)(C)C(=O)NCC(F)(F)F)n2)cc1 [Compound 124] | – | inhibition of JAK3 at concentrations of 50 μM: did not inhibit
O=C(CCNc1nc(-c2cn[nH]c2)ncc1F)NCC(F)(F)F [Compound 16] | – | inhibition of JAK3 at concentrations of 50 μM: did not inhibit
COc1ccc(Nc2nc(N)n(-c3ncc(F)c(N[C@@H](C(=O)NCC(F)(F)F)C(C)C)n3)n2)cc1 [Compound 43] | 1 to 10 µM | –
CC(C)(Nc1ccnc(-c2c[nH]c(=O)c(N)c2)n1)C(=O)NCC(F)(F)F [Compound 136] | 1 to 10 µM | –
O=C(CCNc1nc(-c2cccnc2)ncc1F)NCC(F)(F)F [Compound 15] | 10 to 50 µM | –
CC(C)[C@@H](Nc1ccnc(-c2ccc(=O)[nH]c2)n1)C(=O)NCC(F)(F)F [Compound 85] | 10 to 50 µM | –
Nc1ncccc1-c1ncc(F)c(N2CC(C(=O)NCC(F)(F)F)C2)n1 [Compound 32] | 1 to 10 µM | –
CC(C)(Nc1nc(-c2ccc(O)cc2)ncc1F)C(=O)NCC(F)(F)F [Compound 123] | ≤ 1 µM | –
COc1ccc(-c2ncc(F)c(N[C@H](C)C(=O)NCC(F)(F)F)n2)cn1 [Compound 18] | – | inhibition of JAK3 at concentrations of 50 μM: did not inhibit
CC(C)(Nc1nc(-c2c[nH]c(C(=O)O)c2)ncc1F)C(=O)NCC(F)(F)F [Compound 133] | 1 to 10 µM | –
CC(=O)Nc1nc2ccc(-c3nccc(N[C@@H](C(=O)NCC(F)(F)F)C(C)C)n3)cc2s1 [Compound 65] | 1 to 10 µM | –
CC(C)NC(=O)c1cc(-c2nccc(N3CCC[C@@H]3C(=O)NCC(F)(F)F)n2)c[nH]1 [Compound 122] | – | inhibition of JAK3 at concentrations of 50 μM: did not inhibit
CC(C)[C@@H](Nc1nc(-c2c[nH]c(C(=O)NCc3ccccc3)c2)ncc1F)C(=O)NCC(F)(F)F [Compound 104] | 1 to 10 µM | –
CC(C)(Nc1ccnc(-c2c[nH]c(C(=O)O)c2)n1)C(=O)NCC(F)(F)F [Compound 128] | – | inhibition of JAK3 at concentrations of 50 μM: did not inhibit
CC(C)(Nc1ccnc(-c2ccc(O)cc2)n1)C(=O)NCC(F)(F)F [Compound 144] | ≤ 1 µM | –
COc1ccc(-c2ncc(F)c(N[C@@H](C(=O)NCC(F)(F)F)C(C)C)n2)cn1 [Compound 81] | – | inhibition of JAK3 at concentrations of 50 μM: did not inhibit
CC(C)[C@@H](Nc1ccnc(-c2c[nH]c(C(=O)N3CC=CC3)c2)n1)C(=O)NCC(F)(F)F [Compound 114] | ≤ 1 µM | –
COc1ccc(-c2nccc(N[C@@H](C(=O)NCC(F)(F)F)C(C)C)n2)cn1 [Compound 70] | – | inhibition of JAK3 at concentrations of 50 μM: did not inhibit

SMILES | Ki | further results
CC(C)C(Nc1nc(-c2c[nH]c(C(=O)NCC3CC3)c2)ncc1F)C(=O)NCC(F)(F)F (centres unmarked) [Compound 106] | 10 to 50 µM | –
CC(C)NC(=O)c1cc(-c2nccc(N[C@@H](C(=O)NCC(F)(F)F)C(C)C)n2)c[nH]1 [Compound 111] | – | inhibition of JAK3 at concentrations of 50 μM: did not inhibit
CC(C)(Nc1ccnc(-c2ccc3c(c2)OCO3)n1)C(=O)NCC(F)(F)F [Compound 74] | ≤ 1 µM | –
O=C(NCC(F)(F)F)[C@H]1CCCN1c1nc(-c2cccnc2)ncc1F [Compound 23] | – | inhibition of JAK3 at concentrations of 50 μM: did not inhibit
C[C@H](Nc1nc(-c2ccc(F)nc2)ncc1F)C(=O)NCC(F)(F)F [Compound 1] | – | inhibition of JAK3 at concentrations of 50 μM: did not inhibit
CC(C)[C@@H](Nc1nc(-c2ccc3ncccc3c2)ncc1F)C(=O)NCC(F)(F)F [Compound 77] | 1 to 10 µM | –
CC(C)(Nc1ccnc(-c2c[nH]c(C(=O)N3CC=CC3)c2)n1)C(=O)NCC(F)(F)F [Compound 102] | ≤ 1 µM | –
CC(C)(Nc1ccnc(-c2ccc3ncsc3c2)n1)C(=O)NCC(F)(F)F [Compound 154] | ≤ 1 µM | –
CC(C)[C@@H](Nc1ccnc(-c2ccc3c(c2)OCCO3)n1)C(=O)NCC(F)(F)F [Compound 146] | – | inhibition of JAK3 at concentrations of 50 μM: did not inhibit
CN(C)C(=O)c1cc(-c2ncc(F)c(N3CCC[C@@H]3C(=O)NCC(F)(F)F)n2)c[nH]1 [Compound 129] | 10 to 50 µM | –
CC(C)(Nc1nc(-c2ccc(=O)[nH]c2)ncc1F)C(=O)NCC(F)(F)F [Compound 84] | 10 to 50 µM | –
CC(=O)Nc1nc2ccc(-c3nccc(NC(C)(C)C(=O)NCC(F)(F)F)n3)cc2s1 [Compound 82] | 1 to 10 µM | –
CC(C)[C@@H](Nc1ccnc(-c2ccc(O)cc2)n1)C(=O)NCC(F)(F)F [Compound 167] | 1 to 10 µM | –
COc1ccc(-c2nccc(NC(C)(C)C(=O)NCC(F)(F)F)n2)cn1 [Compound 80] | 10 to 50 µM | –
CC(C)NC(=O)c1cc(-c2nccc(NC(C)(C)C(=O)NCC(F)(F)F)n2)c[nH]1 [Compound 100] | 10 to 50 µM | –
Nc1ncccc1-c1ncc(F)c(NCC(=O)NCC(F)(F)F)n1 [Compound 29] | ≤ 1 µM | –
C[C@H](Nc1nc(-c2ccnc(Cl)c2)ncc1F)C(=O)NCC(F)(F)F [Compound 2] | 10 to 50 µM | –
CC(C)(Nc1ccnc(-c2ccc3nccnc3c2)n1)C(=O)NCC(F)(F)F [Compound 163] | ≤ 1 µM | –
COc1ccc(Nc2nc(N)n(-c3ncc(F)c(NCC(=O)NCC(F)(F)F)n3)n2)cc1 [Compound 58] | 1 to 10 µM | –

SMILES | Ki | further results
CC(C)C(Nc1nc(-c2c[nH]c(C(=O)N3CC=CC3)c2)ncc1F)C(=O)NCC(F)(F)F (centres unmarked) [Compound 108] | ≤ 1 µM | –
O=C(NCC(F)(F)F)[C@H]1CCCN1c1nc(-c2ccc3c(c2)OCCO3)ncc1F [Compound 153] | – | inhibition of JAK3 at concentrations of 50 μM: did not inhibit
CC(=O)Nc1nc2ccc(-c3nccc(N4CCC[C@@H]4C(=O)NCC(F)(F)F)n3)cc2s1 [Compound 63] | 10 to 50 µM | –
COc1ccc(-c2ncc(F)c(NC(C)(C)C(=O)NCC(F)(F)F)n2)cn1 [Compound 69] | – | inhibition of JAK3 at concentrations of 50 μM: did not inhibit
Nc1nc(Nc2cccnc2)nn1-c1ncc(F)c(N2CCC[C@@H]2C(=O)NCC(F)(F)F)n1 [Compound 46] | – | inhibition of JAK3 at concentrations of 5.0 μM: did not inhibit
COc1ccc(-c2nccc(N3CCC[C@@H]3C(=O)NCC(F)(F)F)n2)cc1 [Compound 150] | – | inhibition of JAK3 at concentrations of 50 μM: did not inhibit
CC(C)(Nc1nc(-c2ccc3ncsc3c2)ncc1F)C(=O)NCC(F)(F)F [Compound 140] | ≤ 1 µM | –
Nc1nc(Nc2ccc(F)cc2)nn1-c1cc(N2CCC[C@@H]2C(=O)NCC(F)(F)F)ncn1 [Compound 37] | ≤ 1 µM | –
CNC(=O)c1cc(-c2ncc(F)c(N[C@@H](C(=O)NCC(F)(F)F)C(C)C)n2)c[nH]1 [Compound 103] | 10 to 50 µM | –
Nc1nc(NC2CC2)nn1-c1ncc(F)c(N2CCC[C@@H]2C(=O)NCC(F)(F)F)n1 [Compound 52] | – | inhibition of JAK3 at concentrations of 5.0 μM: did not inhibit
CC(C)[C@@H](Nc1nc(-c2c[nH]c(C(=O)NC3CC3)c2)ncc1F)C(=O)NCC(F)(F)F [Compound 126] | 10 to 50 µM | –
O=C(NCC(F)(F)F)[C@H]1CCCN1c1ccnc(-c2c[nH]c(C(=O)N3CCCC3)c2)n1 [Compound 130] | 1 to 10 µM | –
Nc1nc2ccc(-c3nccc(N4CCC[C@@H]4C(=O)NCC(F)(F)F)n3)cc2s1 [Compound 61] | 1 to 10 µM | –
COc1ccc(Nc2nc(N)n(-c3ncc(F)c(N4CCC[C@@H]4C(=O)NCC(F)(F)F)n3)n2)cc1 [Compound 39] | 1 to 10 µM | –
CC(C)[C@@H](Nc1ccnc(-c2c[nH]c3ccc(Cl)cc23)n1)C(=O)NCC(F)(F)F [Compound 161] | 10 to 50 µM | –
COc1ccc(Nc2nc(N)n(-c3ncc(F)c(NCCC(=O)NCC(F)(F)F)n3)n2)cc1 [Compound 50] | 1 to 10 µM | –
CNC(=O)c1cc(-c2nccc(N[C@@H](C(=O)NCC(F)(F)F)C(C)C)n2)c[nH]1 [Compound 109] | 1 to 10 µM | –
CNC(=O)c1cc(-c2ncc(F)c(N3CCC[C@@H]3C(=O)NCC(F)(F)F)n2)c[nH]1 [Compound 115] | 10 to 50 µM | –
